# According to US20220296583A1, “COMPOSITIONS AND METHODS FOR TREATMENT OF OVARIAN AND BREAST CANCER” (Board of Regents, The University of Texas System, priority 2021, published 2022):
# Entries after “also recorded” stand apart in the source; their conditions may differ.
# Assays:
# [1] = test system: OVCAR8, SKOv3, OC316, MDA4772 and ES2 ovarian cancer cell lines; experiment: Clonogenic survival assay, Compound B and carboplatin; format: cell-based; details: 12-14 days; five cell lines
# Procedure: Cell viability was measured with a bioluminescence assay as described in the Examples, and IC50 values were calculated. (B) Sensitivity to carboplatin. Eight ovarian cancer cell lines were treated as above with different concentrations of carboplatin as indicated. […] The drug concentration ratio is indicated in each plot. The combination index at 50% growth inhibition was calculated using CalcuSyn software. (E) Effect of SIK2 knockout on the carboplatin dose response curve. Cells were treated with different concentrations of carboplatin as indicated. IC50 values for (A-C, E) were calculated by GraphPad Prism 8. […] Four hundred OVCAR8 or SKOv3 ovarian cancer cells were seeded in 6-well plates in culture medium for 24 h. […] The graphs indicate the mean colony formation numbers with standard deviations.
# Cancer cells were seeded in 6-well plates at a density of 400 cells per well in culture medium for 24 h to permit cell adherence. […] After control colonies had grown to include at least 50 cells, cultures were fixed and stained with Coomassie blue (0.1% Coomassie brilliant blue R-250, 40% methanol, and 10% acetic acid) and counted. Colonies were counted from three independent experiments and the mean number of colonies and standard deviations calculated. Multiplicity adjusted p values for each treatment and control were determined.
# survivin = experiment: Survivin expression by western blot; format: cell-based; details: OC316 and OVCAR8; 48 h
# Procedure: Cell lysates were collected and survivin expression was measured by western blot analysis. The experiments were performed three times individually. Densitometry values were determined by Image J shareware (NIH) and normalized to the GAPDH loading control. The values relative to the untreated group were plotted at the bottom.
# Cells were incubated for 24-48 h with and without treatments and then harvested for western blot analysis. Briefly, cells were incubated in lysis buffer for 20 min on ice and centrifuged at 17,000×g for 10 min at 4° C. Protein concentration of cell lysates was determined with BCA reagent (Thermo Fisher Scientific, Houston, Tex., USA). Lysates were separated on 8-16% SDS-PAGE and transferred to polyvinylidene difluoride (PVDF) membranes. Immunoblots were probed with anti-survivin antibody (Novus; 1:2000, Centennial CO, USA) in 5% BSA overnight at 4° C. and HRP labeled secondary antibody was added for 1 h at RT. The signal was developed on X-ray films.
# (§1) Many current cancer chemotherapies, including platinum-based drugs, exert their antitumor effect by triggering apoptosis in cancer cells. […] The inhibitor of apoptosis protein family (IAPs) includes an important group of proteins involved in the regulation of apoptosis. One member of this protein family, survivin, plays an important role in promoting tumor progression by deregulating apoptosis and cell division.
# [2] = test system: OVCAR8, SKOv3, and OC316 ovarian cancer cell lines; experiment: Annexin V/PI apoptosis, Compound B and carboplatin; format: cell-based; details: 72 h; flow cytometry
# Procedure: Cells were dislodged and stained with Annexin V antibody and PI dye for flow cytometry. Representative images are shown on the left and the analysis of apoptotic population under different treatment conditions are on the right. (B) Effect of SIK2 knockout on carboplatin-induced apoptosis. SIK2 knockout (KO) and control cell lines were treated as in (A) and analyzed for apoptosis. The bars indicate the mean percentage of apoptotic cells with standard deviations.
# After completion of incubation, cells were harvested and washed with PBS two times. After washing, cells were re-suspended in 100 μL Annexin-binding buffer containing propidium iodide (PI) and FITC Annexin-V (Invitrogen) and incubated at ambient temperature for 15 min in the dark. After incubation, 200 μL of Annexin-binding buffer was added and stained cells were analyzed using a Beckman Coulter's Gallios Flow Cytometer.
# as §1
# [3] = Pre-clinical toxicology studies; format: in vivo
# [4] = test system: OVCAR8, SKOv3, OC316, OVCAR3, ES2, A2780, MDA2774, and IGROV1 cells; experiment: Short term cell proliferation (CellTiter-Glo), eight ovarian cancer cell lines; format: cell-based, human; details: single concentration of Compound B 0.75-1.25 μM; p<0.01
# Procedure: Cells were seeded in 6 replicates in black-walled and clear-bottomed 96-well plates and incubated overnight. […] The CellTiter-Glo luminescent cell viability assay (Promega) was used to evaluate the effect of treatment on cancer growth. This experiment was performed several times to optimize the concentration. […] GraphPad Prism 8 was used to generate growth curves and calculated IC50. CalcuSyn was used to evaluate additive or synergistic interactions, a combination Index (CI value).
# SKOv3 xenograft = experiment: SKOv3 subcutaneous xenograft, Compound B, carboplatin and paclitaxel; format: in vivo, mice; details: SKOv3 s.c., 6 weeks
# Procedure: After treatment as indicated in (A) for three weeks, mice were weighed, and intraperitoneal nodules were excised and weighed. […] Mice were treated with single, double, or triple agents for 6 weeks. Tumor was measured once a week until the tumor burden in control group reached maximum allowance. The graphs indicate the mean±standard deviation. Statistical significance is indicated by *p<0.05, **p<0.01, and ***p<0.0001.
# Six-week-old female athymic nu/nu mice were purchased from Envigo. Experiments were reviewed and all procedures were performed according to an animal protocol approved by the Institutional Animal Care and Use Committee of UT MD Anderson Cancer Center. […] Carboplatin was administrated i.p. once a week at a dose of 25 mg/kg. […] Carboplatin was treated at a dose of 30 mg/kg once a week for six weeks. […] At end of six weeks, the mice were sacrificed by CO2. The mice were dissected immediately after death and the tumors were collected and weighed.
# OVCAR8 cells were injected intraperitoneally (ip) into nu/nu mice. Treatment started 7 days post injection. […] At the conclusion of the treatment, the mice were sacrificed, and the tumor was dissected and weighed (FIG. 23A). […] The tumor volume was measured at indicated time points (FIG. 23D).
# [5] = test system: OVCAR8, SKOv3, and OC316 ovarian cancer cell lines; experiment: γ-H2AX punctae and comet assay, Compound B and carboplatin; details: 24 h
# Procedure: (B) Cells were treated as described in (A) for 24 h. Then cells were dislodged, immobilized in agarose gel onto glass slide, and lysed. DNA was electrophoresed in alkaline buffer and stained by Vista Green. Olive tail moment (OTL) was measured as described in the Examples. Each plot depicts the mean of OTL (the bars indicate the standard deviation).
# The OxiSelect™ Comet Assay Kit (Cell Biolabs, Inc., San Diego, Calif., USA) was used to evaluate DNA damage with or without drug treatment. […] Slides were electrophoresed in alkaline buffer at 1 volt/cm for 30 min. The cells were stained with 1× Vista Green DNA Dye for 15 min at RT and then viewed with a 4× fluorescence microscope. The percentage of DNA in the tail were analyzed with Casplab_1.2.3b2 (CaspLab Comet Assay Software, CASPLab, casplab.com). At least 50 randomly selected cells were analyzed per sample.
# MDA-MB-231 xenograft = experiment: MDA-MB-231 mammary fat pad xenograft, Compound B and olaparib; format: in vivo, mice; details: 50 mg/kg, oral, 5 weeks
# Procedure: Forty female nu/nu mice were injected with 0.8×10^6 MDA-MB-231 cells into their fourth mammary fat pads. […] Tumors were measured every week as noted above (SKOv3 xenograft models).
compound,measurement,setting,value
"COc1c(F)cc(F)cc1-c1c[nH]c2ncc(-c3cnn(C4CCN(S(C)(=O)=O)CC4)c3)cc12 [Compound B, 3-(3,5-difluoro-2-methoxyphenyl)-5-(1-(1-(methylsulfonyl)piperidin-4-yl)-1H-pyrazol-4-yl)-1H-pyrrolo[2,3-b]pyridine]",clonogenic survival,[1],significantly enhanced carboplatin induced loss of clonogenic survival
same,survivin expression,survivin,downregulation of survivin
same,apoptosis,[2],"induced apoptosis as a single agent, but also enhanced carboplatin-induced apoptosis"
same,hematologic / hematopoietic toxicity,[3],minimal hematologic toxicity; also recorded: little effect on normal hematopoietic or organ function; also recorded: little or no hematopoietic toxicity
same,carboplatin dose response curve when Compound B was added,[4],shifted to the left in seven of eight ovarian cancer cell lines
same,tumor growth (tumor volume),SKOv3 xenograft; Compound B 40 mg/kg,significantly inhibited tumor growth
same,effect when added to carboplatin plus paclitaxel,SKOv3 xenograft; p<0.01,further enhanced the combination treatment of carboplatin plus paclitaxel
same,comet tail moment induced with carboplatin,[5],further enhanced
same,tumor burden / tumor volume,MDA-MB-231 xenograft,remained unchanged
